Laboratory results published in patent US10633419B2, “Immunomodulators” (BRISTOL-MYERS SQUIBB COMPANY, priority 2014, dated 2020).
Positions of bridges follow the written chain, without caps; N, C: chain ends. Non-standard residues stand in square brackets, D forms with d. Residues, ends and D or L forms follow the SMILES beside them. *: point of attachment. Trp(1-CH2COOH) = N[C@@H](Cc1cn(CC(=O)O)c2ccccc12)C(=O)O; X14 = O=C(O)CCCCCCCCCCNC(=O)CCC(=O)NCCCOCCOCCOCCCN*; Phe(3,4,5-F3) = N[C@@H](Cc1cc(F)c(F)c(F)c1)C(=O)O; Bta = N[C@@H](Cc1csc2ccccc12)C(=O)O; Gly(octyl) = CCCCCCCC[C@H](N)C(=O)O; PEG6 = NCCOCCOCCOCCOCCOCCOCCC(=O)O; Aha = [N-]=[N+]=NCC[C@H](N)C(=O)O; Hyp = O=C(O)[C@@H]1C[C@@H](O)CN1; NMeF = CN[C@@H](Cc1ccccc1)C(=O)O; Myristoyl = CCCCCCCCCCCCCC(=O)*; NMeNle = CCCC[C@H](NC)C(=O)O; Dap(Me) = CNC[C@H](N)C(=O)O; Pip = O=C(O)[C@@H]1CCCCN1; NMeA = CN[C@@H](C)C(=O)O; Orn = NCCC[C@H](N)C(=O)O; Pra = C#CC[C@H](N)C(=O)O; Aun = NCCCCCCCCCCC(=O)O; Dab = NCC[C@H](N)C(=O)O; Dap = NC[C@H](N)C(=O)O

Each compound was assayed against T1, PD-L1 (Homo sapiens, UniProt Q9NZQ7) (assay: PD-1/PD-L1 Homogenous Time-Resolved Fluorescence (HTRF) binding assay (PD-1-Ig/PD-L1-His)). Settings: inhibition of PD-1-Ig binding to PD-L1-TVMV-His; value given as number; read-out: HTRF IC50.
T1 construct: hPDL1(19-239)-TVMV-His; made in house; host or cells: HEK293T
T1 sequence (Q9NZQ7 with tags, fused parts or gaps): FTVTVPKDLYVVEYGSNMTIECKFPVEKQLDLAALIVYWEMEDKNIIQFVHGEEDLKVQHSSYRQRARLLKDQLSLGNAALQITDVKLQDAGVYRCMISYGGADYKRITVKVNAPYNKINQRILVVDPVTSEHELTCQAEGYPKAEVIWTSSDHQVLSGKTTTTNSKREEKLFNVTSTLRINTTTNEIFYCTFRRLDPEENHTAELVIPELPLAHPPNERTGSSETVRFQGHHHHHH
Method in brief: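 HTRF competition in dPBS with 0.1% BSA and 0.05% Tween-20: 20 nM PD-1-Ig added after 15 min compound pre-incubation with 10 nM PD-L1-His, then another 15 min. Signal (665/620 nm) after 30 min with APC anti-His (20 nM) and Eu anti-Ig (1 nM).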
Compound `CCCCCCCCCCCCCC(=O)NCCCC[C@H](NC(=O)[C@H](CC(=O)O)NC(=O)CCOCCOCCOCCOCCOCCOCCNC(=O)[C@H](CC(=O)O)NC(=O)CNC(=O)[C@@H]1CSCC(=O)N[C@@H](Cc2ccc(O)cc2)C(=O)N(C)[C@@H](C)C(=O)N[C@@H](CC(=O)O)C(=O)N2CCC[C@H]2C(=O)N[C@@H](Cc2cnc[nH]2)C(=O)N[C@@H](CC(C)C)C(=O)N2C[C@H](O)C[C@H]2C(=O)N[C@@H](Cc2c[nH]c3ccccc23)C(=O)N[C@@H](CO)C(=O)N[C@@H](Cc2c[nH]c3ccccc23)C(=O)N(C)[C@@H](CCCC)C(=O)N(C)[C@@H](CCCC)C(=O)N[C@@H](CCCNC(=N)N)C(=O)N1)C(N)=O` [Example 11017] ({CH2CO}-Y[NMeA]DPHL[Hyp]WSW[NMeNle][NMeNle]RCGD[PEG6]DK(Myristoyl)-NH2; thioether N-14) has an IC50 of 259 nM. `CCCCCCCC[C@H](NC(=O)CCCCCCCCCCNC(=O)[C@@H]1CSCC(=O)N[C@@H](Cc2ccc(O)cc2)C(=O)N(C)[C@@H](C)C(=O)N[C@@H](CC(N)=O)C(=O)N2CCC[C@H]2C(=O)N[C@@H](CN)C(=O)N[C@@H](CC(C)C)C(=O)N2C[C@H](O)C[C@H]2C(=O)N[C@@H](Cc2c[nH]c3ccccc23)C(=O)N[C@@H](CCN)C(=O)N[C@@H](Cc2cn(CC(=O)O)c3ccccc23)C(=O)N(C)[C@@H](CCCC)C(=O)N(C)[C@@H](CCCC)C(=O)N[C@@H](CC(C)C)C(=O)N1)C(=O)O` [Example 11102] ({CH2CO}-Y[NMeA]NP[Dap]L[Hyp]W[Dab][Trp(1-CH2COOH)][NMeNle][NMeNle]LC[Aun][Gly(octyl)]-OH; thioether N-14) gave an IC50 of 13 nM. For `CCCC[C@H]1C(=O)N(C)[C@@H](CCCC)C(=O)N[C@@H](CC(C)C)C(=O)N[C@H](C(=O)NCC(=O)NCC(=O)NCC(=O)NCCCCCCCCCCC(=O)O)CSCC(=O)N[C@@H](Cc2ccc(O)cc2)C(=O)N(C)[C@@H](C)C(=O)N[C@@H](CC(N)=O)C(=O)N2CCC[C@H]2C(=O)N[C@@H](CN)C(=O)N[C@@H](CCC(N)=O)C(=O)N2C[C@H](O)C[C@H]2C(=O)N[C@@H](Cc2c[nH]c3ccccc23)C(=O)N[C@@H](CCN)C(=O)N[C@@H](Cc2cn(CC(=O)O)c3ccccc23)C(=O)N1C` [Example 11094] ({CH2CO}-Y[NMeA]NP[Dap]Q[Hyp]W[Dab][Trp(1-CH2COOH)][NMeNle][NMeNle]LCGGG[Aun]-OH; thioether N-14), the IC50 was 18.8 nM.

Same assay, conditions: inhibition of PD-1-Ig binding to PD-L1-TVMV-His; value given as range class; read-out: HTRF IC50
In the case of `C#CC[C@H](NC(=O)CNC(=O)[C@@H]1CSCC(=O)N[C@@H](Cc2ccc(O)cc2)C(=O)N2CCCC[C@H]2C(=O)N[C@@H](CC(N)=O)C(=O)N2CCC[C@H]2C(=O)N[C@@H](CNC)C(=O)N[C@@H](CC(C)C)C(=O)N2C[C@H](O)C[C@H]2C(=O)N[C@@H](Cc2c[nH]c3ccccc23)C(=O)N[C@@H](CCN)C(=O)N[C@@H](Cc2cn(CC(=O)O)c3ccccc23)C(=O)N(C)[C@@H](CCCC)C(=O)N(C)[C@@H](CCCC)C(=O)N[C@@H](CC(C)C)C(=O)N1)C(=O)O` [INT130AK] ({CH2CO}-Y[Pip]NP[Dap(Me)]L[Hyp]W[Dab][Trp(1-CH2COOH)][NMeNle][NMeNle]LCG[Pra]-OH; thioether N-14), the IC50 is reported as 0.3 to 9.9 nM. `CCCC[C@H]1C(=O)N(C)[C@@H](CCCC)C(=O)N[C@@H](CCCNC(=N)N)C(=O)N[C@H](C(=O)NCC(=O)NCC(=O)N[C@@H](CCN=[N+]=[N-])C(N)=O)CSCC(=O)N[C@@H](Cc2ccc(O)cc2)C(=O)N(C)[C@@H](C)C(=O)N[C@@H](CC(N)=O)C(=O)N2CCC[C@H]2C(=O)N[C@@H](CN)C(=O)N[C@@H](CC(C)C)C(=O)N2C[C@H](O)C[C@H]2C(=O)N[C@@H](Cc2c[nH]c3ccccc23)C(=O)N[C@@H](CO)C(=O)N[C@@H](Cc2csc3ccccc23)C(=O)N1C` [INT 1300C] ({CH2CO}-Y[NMeA]NP[Dap]L[Hyp]WS[Bta][NMeNle][NMeNle]RCGG[Aha]-NH2; thioether N-14) gave an IC50 of 0.3 to 9.9 nM. With `C#CC[C@H](NC(=O)CNC(=O)[C@@H]1CSCC(=O)N[C@@H](Cc2cc(F)c(F)c(F)c2)C(=O)N(C)[C@@H](Cc2ccccc2)C(=O)N(C)[C@@H](CCCC)C(=O)N2CCC[C@@H]2C(=O)N[C@@H](CC(=O)O)C(=O)N[C@@H](C(C)C)C(=O)N(C)[C@@H](Cc2ccccc2)C(=O)N[C@@H](CCCN)C(=O)N2CCC[C@@H]2C(=O)N[C@@H](Cc2c[nH]c3ccccc23)C(=O)N[C@@H](Cc2ccc(O)cc2)C(=O)N[C@@H](CC(C)C)C(=O)N1)C(N)=O` [INT 1400K, ClAc-F3Phe-mPhe-mNle-dPro-Asp-Val-mPhe-Orn-dPro-Trp-Tyr-Leu-Cys-Gly-[(S)-propargylglycine]] ({CH2CO}-[Phe(3,4,5-F3)][NMeF][NMeNle][dP]DV[NMeF][Orn][dP]WYLCG[Pra]-NH2; thioether N-13) the IC50 was 0.3 to 9.9 nM. Compound `C#CC[C@H](NC(=O)CNC(=O)[C@@H]1CSCC(=O)N[C@@H](Cc2ccc(O)cc2)C(=O)N(C)[C@@H](C)C(=O)N[C@@H](CC(=O)O)C(=O)N2CCC[C@H]2C(=O)N[C@@H](Cc2c[nH]cn2)C(=O)N[C@@H](CCC(N)=O)C(=O)N2C[C@H](O)C[C@H]2C(=O)N[C@@H](Cc2c[nH]c3ccccc23)C(=O)N[C@@H](CO)C(=O)N[C@@H](Cc2c[nH]c3ccccc23)C(=O)N(C)[C@@H](CCCC)C(=O)N(C)[C@@H](CCCC)C(=O)N[C@@H](CCC(=O)O)C(=O)N1)C(N)=O` [INT 1400H, ClAc-Tyr-mAla-Asp-Pro-His-Gln-Hyp-Trp-Ser-Trp-mNle-mNle-Glu-Cys-Gly-[(S)-propargylglycine]] ({CH2CO}-Y[NMeA]DPHQ[Hyp]WSW[NMeNle][NMeNle]ECG[Pra]-NH2; thioether N-14) has an IC50 of 0.3 to 9.9 nM. With `CCCC[C@H]1C(=O)N(C)[C@@H](CCCC)C(=O)N[C@@H](CCCNC(=N)N)C(=O)N[C@H](C(=O)NCC(=O)N[C@@H](CCn2cc(CNC(=O)COCCOCCOC)nn2)C(N)=O)CSCC(=O)N[C@@H](Cc2ccc(O)cc2)C(=O)N(C)[C@@H](C)C(=O)N[C@@H](CC(N)=O)C(=O)N2CCC[C@H]2C(=O)N[C@@H](CN)C(=O)N[C@@H](CC(C)C)C(=O)N2C[C@H](O)C[C@H]2C(=O)N[C@@H](Cc2c[nH]c3ccccc23)C(=O)N[C@@H](CO)C(=O)N[C@@H](Cc2csc3ccccc23)C(=O)N1C` [Example 13052] the IC50 was 10 to 99 nM. With `CCCC[C@H]1C(=O)N(C)[C@@H](CCCC)C(=O)N[C@@H](CC(C)C)C(=O)N[C@H](C(=O)NCC(=O)N[C@@H](Cc2cn(CCOCCOCCOCCOCCOCCOCCOCCOCCOCCOCCOCCNC(=O)CC[C@H](NC(=O)CCCCCCCCCCCCCCCCC(=O)O)C(=O)O)nn2)C(=O)O)CSCC(=O)N[C@@H](Cc2ccc(O)cc2)C(=O)N2CCCC[C@H]2C(=O)N[C@@H](CC(N)=O)C(=O)N2CCC[C@H]2C(=O)N[C@@H](CN)C(=O)N[C@@H](CC(C)C)C(=O)N2C[C@H](O)C[C@H]2C(=O)N[C@@H](Cc2c[nH]c3ccccc23)C(=O)N[C@@H](CCN)C(=O)N[C@@H](Cc2cn(CC(=O)O)c3ccccc23)C(=O)N1C` [Example 14104] the IC50 was 100 to 1600 nM. For `CCCC[C@H]1C(=O)N(C)[C@@H](CCCC)C(=O)N[C@@H](CC(C)C)C(=O)N[C@H](C(=O)NCC(=O)NCC(=O)NCC(=O)NCCCCCCCCCCC(=O)O)CSCC(=O)N[C@@H](Cc2ccc(O)cc2)C(=O)N(C)[C@@H](C)C(=O)N[C@@H](CC(=O)O)C(=O)N2CCC[C@H]2C(=O)N[C@@H](CN)C(=O)N[C@@H](CC(C)C)C(=O)N2C[C@H](O)C[C@H]2C(=O)N[C@@H](Cc2c[nH]c3ccccc23)C(=O)N[C@@H](CCN)C(=O)N[C@@H](Cc2cn(CC(=O)O)c3ccccc23)C(=O)N1C` [Example 11096] ({CH2CO}-Y[NMeA]DP[Dap]L[Hyp]W[Dab][Trp(1-CH2COOH)][NMeNle][NMeNle]LCGGG[Aun]-OH; thioether N-14), the IC50 was 10 to 99 nM. With `C=C1N[C@@H](Cc2c[nH]c3ccccc23)C(=O)N[C@@H](CCN)C(=O)N[C@@H](Cc2cn(CC(=O)O)c3ccccc23)C(=O)N(C)[C@@H](CCCC)C(=O)N(C)[C@@H](CCCC)C(=O)N[C@@H](CC(C)C)C(=O)N[C@H](C(=O)NCC(=O)N[C@@H](CC(=O)NCCOCCOCCOCCOCCOCCOCCC(=O)NC[C@H](NC(=O)CCCCCCCCCCCCCCCCC(=O)O)C(=O)O)C(=O)O)CSCC(=O)N[C@@H](Cc2ccc(O)cc2)C(=O)N(C)[C@@H](C)C(=O)N[C@@H](CC(N)=O)C(=O)N2CCC[C@H]2C(=O)N[C@@H](CN)C(=O)N[C@@H](CC(C)C)C(=O)N2C[C@H](O)C[C@@]12O` [Example 11183] the IC50 was 100 to 1600 nM. `CCCC[C@H]1C(=O)N(C)[C@@H](CCCC)C(=O)N[C@@H](CCCNC(=N)N)C(=O)N[C@H](C(=O)NCC(=O)NCCCOCCOCCOCCCNC(=O)CCC(=O)NCCCCCCCCCCC(=O)O)CSCC(=O)N[C@@H](Cc2ccc(O)cc2)C(=O)N(C)[C@@H](C)C(=O)N[C@@H](CC(=O)O)C(=O)N2CCC[C@H]2C(=O)N[C@@H](Cc2cnc[nH]2)C(=O)N[C@@H](CC(C)C)C(=O)N2C[C@H](O)C[C@H]2C(=O)N[C@@H](Cc2c[nH]c3ccccc23)C(=O)N[C@@H](CO)C(=O)N[C@@H](Cc2c[nH]c3ccccc23)C(=O)N1C` [Example 11068] ({CH2CO}-Y[NMeA]DPHL[Hyp]WSW[NMeNle][NMeNle]RCG-X14; thioether N-14) showed an IC50 of 0.3 to 9.9 nM. Work on `CCCC[C@H]1C(=O)N(C)[C@@H](CCCC)C(=O)N[C@@H](CC(C)C)C(=O)N[C@H](C(=O)NCC(=O)N[C@@H](CC(=O)O)C(=O)NCC(=O)NCCCCCCCCCCC(=O)O)CSCC(=O)N[C@@H](Cc2ccc(O)cc2)C(=O)N(C)[C@@H](C)C(=O)N[C@@H](CC(N)=O)C(=O)N2CCC[C@H]2C(=O)N[C@@H](CN)C(=O)N[C@@H](CC(C)C)C(=O)N2C[C@H](O)C[C@H]2C(=O)N[C@@H](Cc2c[nH]c3ccccc23)C(=O)N[C@@H](CCN)C(=O)N[C@@H](Cc2cn(CC(=O)O)c3ccccc23)C(=O)N1C` [Example 11099] ({CH2CO}-Y[NMeA]NP[Dap]L[Hyp]W[Dab][Trp(1-CH2COOH)][NMeNle][NMeNle]LCGDG[Aun]-OH; thioether N-14) yielded an IC50 of 0.3 to 9.9 nM.
